Experimental data reported in patent US6562954B1, “Method for producing oligosaccharide, and novel oligosaccharide and pharmaceutical composition containing the same” (Seikagaku Corporation, priority 1999, dated 2003).

Legend:
[1] = system: Guinea pigs; assay: Test for antigenicity in guinea pigs (active systemic anaphylaxis); format: in vivo; details: sensitized s.c., induced i.v.
Procedure: Guinea pigs were sensitized by 3 times of subcutaneous administration of K4 or G4L4 alone or an emulsion of K4 with an immunostimulant, Freund's complete adjuvant (FCA). K4 or G4L4 was intravenously administered to the animals 12 days after the final sensitization to induce active systemic anaphylaxis. As a positive control, a similar test was performed for ovalbumin (OVA).
The results of the above test were shown in Table 1 together with the doses of the test substances. […] From the above results, K4 and G4L4 are not considered to induce active systemic anaphylaxis in guinea pigs.

[2] = system: normal mice; format: in vivo; details: for body weight thereafter: all mice, 2,000 mg/kg i.v. once, after the next day up to 14 days; for body weight on the next day of the administration: male mice, 2,000 mg/kg i.v. once; for general condition immediately after the administration: mice, 2,000 mg/kg i.v. once; for death: mice, male and female groups, 2,000 mg/kg i.v. once, observed 14 days
Procedure: From the above results, the least fatal dose of K4 and G4L4 for single intravenous administration is considered to be 2,000 mg/kg or higher. Therefore, LD50 of K4 and G4L4 for single intravenous administration exceeds 2,000 mg/kg for both of male and female mice.

[3] = system: guinea pig neutrophils; assay: Effect on O2− generation by guinea pig neutrophils induced by FMLP stimulation; format: cell-based; details: for relative inhibition rate to the control of O2− generation: 1 mg/ml, preincubation 37° C. 1 hour; for suppression of O2− generation by neutrophils (in words): 0.01 to 1 mg/ml
Procedure: A 0.2% aqueous solution of glycogen in physiological saline was autoclaved, and 20 ml of the solution was intraperitoneally administered to a Hartley female guinea pig. The animal was killed by exsanguination 16 hours later, 20 ml of physiological saline containing 10 U/ml of heparin was injected into the abdominal cavity, and the peritoneal exudate was collected. The exudate was centrifuged at 1000 rpm for 10 minutes on a desk-top centrifugal machine, and purified water was added to the precipitate to cause hemolysis for 30 seconds. The solution was made isotonic again with Hank's balanced salt solution at 2-fold concentration, and centrifuged at 1000 rpm for 10 minutes. A procedure of resuspension of the precipitates in the Hank's balanced salt solution and centrifugation was repeated twice to obtain neutrophils. The obtained guinea pig neutrophils were suspended in Hank's balanced salt solution, and the leukocyte number was counted by a blood cell counter (Sysmex K-2000). A suspension diluted with Hank's balanced salt solution to 2×10^6 cells/ml was used for the experiment as a cell suspension.
1 ml of the-cell suspension and 10 μl of a solution of test substance at a known concentration (in a control, keratan sulfate oligosaccharide was not added) were mixed, preincubated at 37° C. for 1 hour, and 50 μl of 1.6 mM cytochrome C solution and 100 μl of 0.1 mM FMLP solution were successively added thereto and mixed. The mixture was incubated at 37° C. for 10 minutes, and the reaction was stopped by cooling with ice. The reaction mixture was centrifuged at 3000 rpm for 5 minutes, and absorbance of the supernatant was measured at a wavelength of 550 nm. All of the aforementioned procedures except for the incubation were performed with ice cooling.

Row | Molecule | anaphylatic reaction after induction [1] | body weight thereafter [2] | body weight on the next day of the administration [2] | general condition immediately after the administration [2] | death [2] | relative inhibition rate to the control of O2− generation [3] | suppression of O2− generation by neutrophils (in words) [3]
1 | CC(=O)N[C@@H]1[C@@H](O)[C@H](O[C@@H]2O[C@H](COS(=O)(=O)[O-])[C@H](O)[C@H](O[C@@H]3O[C@H](COS(=O)(=O)[O-])[C@@H](O)[C@H](O)[C@H]3NC(C)=O)[C@H]2O)[C@@H](COS(=O)(=O)[O-])O[C@H]1O.[Na+].[Na+].[Na+] [Compound G4L4, O-(2-Acetamido-2-deoxy-6-O-sulfo-β-D-glucopyranosyl)-(1→3)-O-(6-O-sulfo-β-D-galactopyranosyl)-(1→4)-O-2-acetamido-2-deoxy-6-O-sulfo-β-D-glucopyranose Trisodium Salt] | No anaphylatic reaction was observed | favorable body weight increase | slight weight loss | paralytic gait was observed for every mouse | No death was observed | 57.1% | markedly suppressed
2 | CC(=O)N[C@H]1[C@H](O[C@@H]2[C@@H](O)[C@H](O)O[C@H](COS(=O)(=O)[O-])[C@@H]2O)O[C@H](COS(=O)(=O)[O-])[C@@H](O)[C@@H]1O.[Na+].[Na+] [Compound K4, O-(2-Acetamido-2-deoxy-6-O-sulfo-β-D-glucopyranosyl)-(1→3)-O-6-O-sulfo-β-D-galactopyranose Disodium Salt] | No anaphylatic reaction was observed | favorable body weight increase | slight weight loss | paralytic gait was observed for every mouse | No death was observed | 44.7% | markedly suppressed
3 | CC(=O)NC1C(O)OC(COS(=O)(=O)[O-])C(OC2OC(COS(=O)(=O)[O-])C(O)C(OC3OC(COS(=O)(=O)[O-])C(OC4OC(COS(=O)(=O)[O-])C(O)C(O)C4O)C(O)C3NC(C)=O)C2O)C1O.[Na+].[Na+].[Na+].[Na+] (centres unmarked) [Compound L4L4, reference compound] |  |  |  |  |  | 50.6% | markedly suppressed
4 | OVA: ovalbumin, positive control in the antigenicity test (protein, UniProt P01012 2-386, looked up) Ovalbumin: GSIGAASMEFCFDVFKELKVHHANENIFYCPIAIMSALAMVYLGAKDSTRTQINKVVRFDKLPGFGDSIEAQCGTSVNVHSSLRDILNQITKPNDVYSFSLASRLYAEERYPILPEYLQCVKELYRGGLEPINFQTAADQARELINSWVESQTNGIIRNVLQPSSVDSQTAMVLVNAIVFKGLWEKAFKDEDTQAMPFRVTEQESKPVQMMYQIGLFRVASMASEKMKILELPFASGTMSMLVLLPDEVSGLEQLESIINFEKLTEWTSSNVMEERKIKVYLPRMKMEEKYNLTSVLMAMGITDVFSSSANLSGISSAESLKISQAVHAAHAEINEAGREVVGSAEAGVDAASVSEEFRADHPFLFCIKHIATNAVLFFGRCVSP | showed anaphylatic reaction |  |  |  |  |  | 
